Experimental data taken from paper PMC11234063, “Eugenol and lidocaine inhibit voltage-gated Na^+ channels from dorsal root ganglion neurons with different mechanisms” (Frontiers in Pharmacology, 2024).
Values joined by “and” are separate entries in the source; they are usually repeats but may differ in a detail not shown here. Equal values may be shown once. “Also recorded” adds a separate entry of the source. Read-outs that look alike come from different tables or passages of the source.

Experiments:
Assay type in all cases: cell-based, rat
[1] = system: TTX-R INa (VGSCs of DRG neurons); assay: Slow inactivation entry, three-pulse protocol, TTX-R INa
[2] = system: total INa (VGSCs of DRG neurons); assay: INa inactivation time constants during test pulse, total INa
[3] = system: total INa (VGSCs naturally expressed on dorsal root ganglion sensory neurons); assay: Dose–response inhibition of total INa peak, whole-cell patch clamp
[4] = system: total INa (VGSCs of DRG neurons); assay: Steady-state inactivation, 100-ms conditioning pre-pulses, total INa; conditions: EUG 2 mM, LID 1 mM
[5] = system: TTX-R INa (VGSCs of DRG neurons); conditions: EUG 2 mM, LID 1 mM
[6] = system: TTX-R INa (VGSCs of DRG neurons); assay: Voltage dependence of Na+ conductance activation (I-V and G-V curves), TTX-R INa; conditions: EUG 2 mM
DRG neuron = assay: Action potential firing, current clamp; conditions: EUG 1 mM; 1-ms 1-nA depolarizing current injection
[7] = system: TTX-R INa (VGSCs of DRG neurons)
[8] = system: total INa (VGSCs of DRG neurons); assay: Voltage dependence of Na+ conductance activation (I-V and G-V curves), total INa; conditions: EUG 2 mM
[9] = system: total INa (VGSCs of DRG neurons); assay: Slow inactivation entry, three-pulse protocol, total INa
[10] = system: TTX-R INa (VGSCs of DRG neurons); conditions: EUG 2 mM, LID 1 mM; remark: listed apart in the source
[11] = system: persistent total INa (DRG neurons); assay: Persistent total INa at the end of 50-ms depolarizing pulses; conditions: EUG 2 mM, LID 1 mM
[12] = system: total INa (VGSCs of DRG neurons); assay: Inhibition in depolarization time series at 2 and 5 Hz, total INa; conditions: EUG 2 mM, LID 1 mM
[13] = system: TTX-R INa (VGSCs of DRG neurons); remark: listed apart in the source
[14] = individual cells, during exposure to EUG 2 mM or LID 1 mM
[15] = inhibition at all activating voltages

With `C=CCc1ccc(O)c(OC)c1` [EUG, 4-allyl-2-methoxyphenol] the “Fast inactivation entry time constant” value ([1]; EUG 2 mM, LID 1 mM) was 76.58 ± 30.563^ns ms, the “Fractional current when P1 = 2 m” value ([1]; EUG 2 mM, LID 1 mM) was 0.93 ± 0.028^ns and the “Percent fast component (slow inactivation entry)” value ([1]; EUG 2 mM, LID 1 mM) was 47.56 ± 16.257^ns %. For the same compound, the “Slow inactivation entry time constant” value ([1]; EUG 2 mM, LID 1 mM) was 631.05 ± 282.320^ns, the “Slow inactivation state entry kinetics of INa, individual cells” value [1, 14] was 558.80 and 167.30 and 405.40 and 711.30 and 255.80 and the “Effect on inactivation time constants” value [2] was “unaffected”. For the same compound, the “Pre-inhibition of total INa” value ([3]; EUG at 1.3 mM) was ~25%, the “Time to inhibition of INa upon addition” value ([3]; fast single-cell superfusion, 0.2 Hz time series) was “less than 5 s” and the “Reversibility of inhibition after drug washout” value ([3]; total INa) was “fully reversible”. For the same compound, the “Dose response curves' data, Average (fractional current), EUG (LID 0.5 mM)” value ([3]; total INa, EUG 0.1 mM in the presence of LID 0.5 mM) was 0.97, the “Dose response curves' data, Average (fractional current), EUG (LID 0.5 mM)” value ([3]; total INa, EUG 0.3 mM in the presence of LID 0.5 mM) was 0.85 and the “Dose response curves' data, Average (fractional current), EUG (LID 0.5 mM)” value ([3]; total INa, EUG 1 mM in the presence of LID 0.5 mM) was 0.60. For the same compound, the “Dose response curves' data, Average (fractional current), EUG (LID 0.5 mM)” value ([3]; total INa, EUG 3 mM in the presence of LID 0.5 mM) was 0.46, the “Dose response curves' data, Average (fractional current), EUG (LID 0.5 mM)” value ([3]; total INa, EUG 10 mM in the presence of LID 0.5 mM) was 0.10 and the “Dose response curves' data, Average (fractional current)” value ([3]; total INa, drug at 0.001 mM) was 1.00. The “Dose response curves' data, Average (fractional current)” value ([3]; total INa, drug at 0.1 mM) was 0.98, the “Dose response curves' data, Average (fractional current)” value ([3]; total INa, drug at 0.3 mM) was 0.93 and the “Dose response curves' data, Average (fractional current)” value ([3]; total INa, drug at 1 mM) was 0.86. The “Dose response curves' data, Average (fractional current)” value ([3]; total INa, drug at 3 mM) was 0.36, the “Dose response curves' data, Average (fractional current)” value ([3]; total INa, drug at 10 mM) was 0.07 and the “Dose response curves' data, Average (fractional current)” value ([3]; total INa, drug at 30 mM) was 0.01. For the same compound, the IC50 ([3]; total INa, holding −110 mV, test +20 mV, drug alone) was 2.27 ± 0.075 mM, the “Time series of INa blockade, Average (normalized current)” value (“Time series … (normalized current)” below) ([3]; total INa, time 15 sec, drug exposure) was 0.55 and the “Time series … (normalized current)” value ([3]; total INa, time 20 sec, drug exposure) was 0.54. For the same compound, the “Time series … (normalized current)” value ([3]; total INa, time 25 sec, drug exposure) was 0.54, the “Time series … (normalized current)” value ([3]; total INa, time 30 sec, recovery) was 0.96 and the “Time series … (normalized current)” value ([3]; total INa, time 35 sec, recovery) was 0.99. For the same compound, the “Time series … (normalized current)” value ([3]; total INa, time 40 sec, recovery) was 0.99, the Max slope-inact [4] was −12.2 ± 10.7 (n = 9) ns mV/e-fold and the V1/2-inact [4] was −63.85 ± 2.92 (n = 9) mV. For the same compound, the “Max slope-inact in individual cells” value ([4]; individual cells) was -14.8 mV/efold and -10.65 mV/efold and -13.47 mV/efold and -10.21 mV/efold and -17.93 mV/efold and -9.046 mV/efold and -7.985 mV/efold and -14.87 mV/efold and -11.22 mV/efold, the “V1/2-inact in individual cells” value ([4]; individual cells) was -63.75 mV and -57.14 mV and -69.63 mV and -55.48 mV and -75.79 mV and -59.29 mV and -57.64 mV and -78.67 mV and -57.24 mV and the “Shift of the steady-state inactivation curve, on average” value ([5]; 100-ms conditioning pulse) was −5 mV. For the same compound, the Max slope-inact [5] was −5.83 ± 0.43 (n = 7) ns mV/e-fold, the V1/2-inact [5] was −36.9 ± 2.48 (n = 7) mV and the “Max slope-inact in individual cells” value ([5]; individual cells) was -5.184 mV/efold and -6.728 mV/efold and -5.779 mV/efold and -3.945 mV/efold and -7.158 mV/efold and -6.792 mV/efold and -5.233 mV/efold. For the same compound, the “V1/2-inact in individual cells” value ([5]; individual cells) was -28.59 mV and -33.94 mV and -32.48 mV and -34.07 mV and -46.4 mV and -44.79 mV and -37.94 mV, the Max slope-act ([6]; LID 1 mM) was 6.4 ± 0.4 (n = 7) mV/e-fold and the V1/2-act ([6]; LID 1 mM) was −11.5 ± 1.96 (n = 7) ns mV. For the same compound, the “Effect on reversal potential of the currents” value [6, 15] was “without significantly affecting”, the “Max slope-act in individual cells” value ([6]; individual cells, LID 1 mM) was 6.818 mV/efold and 6.311 mV/efold and 5.452 mV/efold and 4.894 mV/efold and 8.267 mV/efold and 6.510 mV/efold and 6.698 mV/efold and the “V1/2-act in individual cells” value ([6]; individual cells, LID 1 mM) was -9.916 mV and -13.33 mV and -16.67 mV and -10.24 mV and -5.511 mV and -5.684 mV and -19.13 mV. The “Effect on action potential firing” value (DRG neuron) was “promptly inhibits action potential firing; also recorded: prevents neurons from firing action potentials”, the “Effect on inactivation time constants” value [7] was “unaffected” and the Max slope-act ([8]; LID 1 mM) was 5.4 ± 0.41 (n = 9) mV/e-fold. For the same compound, the V1/2-act ([8]; LID 1 mM) was −13.8 ± 2.18 (n = 9) mV, the “Effect on reversal potential of the currents” value [8, 15] was “without significantly affecting” and the “Max slope-act in individual cells” value ([8]; individual cells, LID 1 mM) was 5.526 mV/efold and 5.494 mV/efold and 4.967 mV/efold and 6.616 mV/efold and 5.996 mV/efold and 6.156 mV/efold and 4.306 mV/efold and 2.717 mV/efold and 6.496 mV/efold. The “V1/2-act in individual cells” value ([8]; individual cells, LID 1 mM) was -10.73 mV and -7.173 mV and -19.64 mV and -5.137 mV and -8.98 mV and -24.01 mV and -14.91 mV and -13.00 mV and -20.84 mV, the “Fast inactivation entry time constant” value ([9]; EUG 2 mM, LID 1 mM) was 792.48 ± 298.530 ^ns ms and the “Fractional current when P1 = 2 m” value ([9]; EUG 2 mM, LID 1 mM) was 0.82 ± 0.034 ^ns. For the same compound, the “Percent fast component (slow inactivation entry)” value ([9]; EUG 2 mM, LID 1 mM) was 26.92 ± 4.583 ^ns %, the “Slow inactivation entry time constant” value ([9]; EUG 2 mM, LID 1 mM) was 1,142.30 ± 246.525 ^ns and the “Slow inactivation state entry kinetics of INa, individual cells” value [9, 14] was 713.90 and 1928.00 and 344.50 and 1032.00 and 1066.00. The “Fractional inhibition, 2 Hz, 20th pulse” value [10] was 0.44 ± 0.064 (n = 6), the “Fractional inhibition, 5 Hz, 20th pulse” value [10] was 0.49 ± 0.061 (n = 6) and the “Fractional current after blockade, 2 Hz, 1st pulse, individual cells” value ([10]; individual cells) was 0.62 and 0.6 and 0.47 and 0.55. For the same compound, the “Fractional current after blockade, 2 Hz, 20th pulse, individual cells” value ([10]; individual cells) was 0.56 and 0.48 and 0.36 and 0.46, the “Fractional current after blockade, 5 Hz, 1st pulse, individual cells” value ([10]; individual cells) was 0.75 and 0.63 and 0.55 and 0.51 and the “Fractional current after blockade, 5 Hz, 20th pulse, individual cells” value ([10]; individual cells) was 0.66 and 0.54 and 0.36 and 0.43. For the same compound, the “Inhibition of persistent total INa after 50-ms depolarization” value [11] was “remarkably inhibited; also recorded: effectively inhibits”, the “Fractional inhibition, 2 Hz, 1st pulse” value [12] was 0.53 ± 0.049 (n = 9) and the “Fractional inhibition, 5 Hz, 1st pulse” value [12] was 0.49 ± 0.056 (n = 8). For the same compound, the “Fractional current after blockade, 2 Hz, 1st pulse, individual cells” value ([12]; individual cells) was 0.40 and 0.52 and 0.58 and 0.37 and 0.28 and 0.50 and 0.730 and 0.29 and 0.53, the “Fractional current after blockade, 2 Hz, 20th pulse, individual cells” value ([12]; individual cells) was 0.36 and 0.54 and 0.56 (2×) and 0.34 and 0.15 and 0.49 and 0.74 and 0.26 and the “Fractional current after blockade, 5 Hz, 1st pulse, individual cells” value ([12]; individual cells) was 0.4 and 0.56 and 0.58 and 0.35. For the same compound, the “Fractional current after blockade, 5 Hz, 20th pulse, individual cells” value ([12]; individual cells) was 0.31 (2×) and 0.47 and 0.54, the “Reversibility of inhibition after drug washout” value [13] was “fully reversible” and the “Dose response curves' data, Average (fractional current)” value ([13]; drug at 0.1 mM) was 0.96. For the same compound, the “Dose response curves' data, Average (fractional current)” value ([13]; drug at 0.3 mM) was 0.92, the “Dose response curves' data, Average (fractional current)” value ([13]; drug at 1 mM) was 0.85 and the “Dose response curves' data, Average (fractional current)” value ([13]; drug at 3 mM) was 0.34. For the same compound, the “Dose response curves' data, Average (fractional current)” value ([13]; drug at 10 mM) was 0.14, the “Dose response curves' data, Average (fractional current)” value ([13]; drug at 30 mM) was 0.00 and the IC50 ([13]; holding −110 mV, test +20 mV) was 2.21 ± 0.08 mM. The “Time series … (normalized current)” value ([13]; time 15 sec, drug exposure) was 0.62, the “Time series … (normalized current)” value ([13]; time 20 sec, drug exposure) was 0.62 and the “Time series … (normalized current)” value ([13]; time 25 sec, drug exposure) was 0.63. For the same compound, the “Time series … (normalized current)” value ([13]; time 30 sec, recovery) was 1.00, the “Time series … (normalized current)” value ([13]; time 35 sec, recovery) was 1.04 and the “Time series … (normalized current)” value ([13]; time 40 sec, recovery) was 1.03.
For `C/C=C\c1ccc(O)c(OC)c1` [IEUG], the “Dose response curves' data, Average (fractional current)” value ([3]; total INa, drug at 3 mM) was 0.40 and the “Dose response curves' data, Average (fractional current)” value ([3]; total INa, drug at 10 mM) was 0.02.
